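In this assay, cells in 96-well plates receive the compound at five concentrations for 48 hours. Endpoints are linearly interpolated between the surrounding concentrations. GI50: concentration for 50% inhibition of growth.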 The source made the active and inactive calls. No stated cut-off is given here; in the data, active = GI50 up to about 1.1 µM and inactive = higher.
Key:
Test in all cases: NCI anticancer screen, dose series, 48 h
786-0 = system: 786-0
A498 = system: A498
ACHN = system: ACHN
BT-549 = system: BT-549
CAKI-1 = system: CAKI-1
CCRF-CEM = system: CCRF-CEM
COLO 205 = system: COLO 205
DU-145 = system: DU-145
EKVX = system: EKVX
HCT-116 = system: HCT-116
HCT-15 = system: HCT-15
HL-60 = system: HL-60
HT-29 = system: HT-29
Hs-578T = system: Hs-578T
IGROV-1 = system: IGROV-1
K562 = system: K562
KM12 = system: KM12
LOX IMVI = system: LOX IMVI
M14 = system: M14
MCF7 = system: MCF7
MDA-MB-231 = system: MDA-MB-231
MDA-MB-435 = system: MDA-MB-435
MDA-N = system: MDA-N
MOLT-4 = system: MOLT-4
Malme-3M = system: Malme-3M
NCI-H226 = system: NCI-H226
NCI-H23 = system: NCI-H23
NCI-H460 = system: NCI-H460
NCI/ADR-RES = system: NCI/ADR-RES
OVCAR-3 = system: OVCAR-3
OVCAR-8 = system: OVCAR-8
PC-3 = system: PC-3
RPMI-8226 = system: RPMI-8226
RXF 393 = system: RXF 393
SF-268 = system: SF-268
SF-295 = system: SF-295
SF-539 = system: SF-539
SK-MEL-28 = system: SK-MEL-28
SK-MEL-2 = system: SK-MEL-2
SK-MEL-5 = system: SK-MEL-5
SK-OV-3 = system: SK-OV-3
SN12C = system: SN12C
SNB-19 = system: SNB-19
SW-620 = system: SW-620
T47D = system: T47D
TK-10 = system: TK-10
U-251 = system: U-251
UACC-257 = system: UACC-257
UACC-62 = system: UACC-62
UO-31 = system: UO-31

For `CC1CC/C(=C\c2ccc(F)cc2)C2=C1C(c1ccc(F)cc1)NC(=S)N2` (stereo not given), the GI50 (786-0) was 63.4 µM (inactive), the GI50 (A498) was 30.5 µM (inactive) and the GI50 (ACHN) was 54.3 µM (inactive). For the same molecule, the GI50 (BT-549) was 35.1 µM (inactive), the GI50 (CAKI-1) was 57.8 µM (inactive) and the GI50 (CCRF-CEM) was 68.5 µM (inactive). For the same molecule, the GI50 (COLO 205) was 30.6 µM (inactive), the GI50 (DU-145) was 46.8 µM (inactive) and the GI50 (EKVX) was 12.9 µM (inactive). For the same molecule, the GI50 (HCT-116) was 32.9 µM (inactive), the GI50 (HCT-15) was 41 µM and the GI50 (HL-60) was 38.5 µM (inactive). The GI50 (HT-29) was 29 µM (inactive), the GI50 (Hs-578T) was > 100 µM (inactive) and the GI50 (IGROV-1) was 43.5 µM (inactive). The GI50 (K562) was 35.5 µM (inactive), the GI50 (KM12) was 24.7 µM (inactive) and the GI50 (LOX IMVI) was 48.2 µM (inactive). The GI50 (M14) was 50.9 µM (inactive), the GI50 (MCF7) was 53.3 µM (inactive) and the GI50 (MDA-MB-231) was 47.8 µM (inactive). For the same molecule, the GI50 (MDA-MB-435) was 57.7 µM (inactive), the GI50 (MDA-N) was 67.8 µM (inactive) and the GI50 (MOLT-4) was 49.2 µM (inactive). The GI50 (Malme-3M) was 36.7 µM (inactive), the GI50 (NCI-H226) was 46.1 µM (inactive) and the GI50 (NCI-H23) was 30.7 µM (inactive). The GI50 (NCI-H460) was 20.4 µM (inactive), the GI50 (NCI/ADR-RES) was 53.6 µM (inactive) and the GI50 (OVCAR-3) was 33.8 µM (inactive). For the same molecule, the GI50 (OVCAR-8) was 86.7 µM (inactive), the GI50 (PC-3) was 30 µM (inactive) and the GI50 (RPMI-8226) was 18.1 µM (inactive). The GI50 (RXF 393) was 25.2 µM (inactive), the GI50 (SF-268) was 91.4 µM (inactive) and the GI50 (SF-295) was 54.7 µM (inactive). For the same molecule, the GI50 (SF-539) was > 100 µM (inactive), the GI50 (SK-MEL-28) was 88.3 µM (inactive) and the GI50 (SK-MEL-2) was 28.2 µM (inactive). The GI50 (SK-MEL-5) was 31 µM (inactive), the GI50 (SK-OV-3) was > 100 µM (inactive) and the GI50 (SN12C) was 97.7 µM (inactive). For the same molecule, the GI50 (SNB-19) was > 100 µM (inactive), the GI50 (SW-620) was 80.4 µM (inactive) and the GI50 (T47D) was 12.9 µM (inactive). The GI50 (TK-10) was 79.3 µM (inactive), the GI50 (U-251) was 61.4 µM (inactive) and the GI50 (UACC-257) was 43.2 µM (inactive). For the same molecule, the GI50 (UACC-62) was > 100 µM (inactive) and the GI50 (UO-31) was 23.2 µM (inactive).

Reference: ChEMBL document CHEMBL1201862, “PubChem BioAssay data set” (2004)
